Laboratory results: paper PMC10135569, “Does Enhanced Structural Maturity of hiPSC-Cardiomyocytes Better for the Detection of Drug-Induced Cardiotoxicity?” (Biomolecules, 2023)
Where two headings read alike, the source gives them in different places.

Legend:
[1] = listed in Supplementary Table S1; no reference given; cited from earlier work
[2] = tested on: hiPSC-CMs (iCell2 Cardiomyocytes) 2D monolayers; assay: Membrane potential (action potential) recordings with FluoVolt voltage-sensitive dye on the CellOPTIQ platform; format: cell-based, human; details: for activity at 0.1 µM / activity at 0.3 µM / activity at 0.03 µM / activity at 1 µM: Homo sapiens, Cardiomyocyte, 0.5 h, 30 min, delta over DMSO 0.1%
Outline: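 iCell2 hiPSC-CM monolayers (50,000 cells/well on fibronectin or Matrix Plus, days 5–6) were loaded with FluoVolt (1:1000, 20 min, 37 °C) and imaged at 37 °C with 470 nm excitation and 510–560 nm emission sampled at 10 kHz. Spontaneous action potentials were recorded for 10 s at baseline and 30 min after drug, with one of four concentrations per well (n = 8).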

[3] = tested on: hiPSC-CMs (iCell2 Cardiomyocytes) 2D monolayers; assay: Contractility measurements using video imaging (ContractilityTool / MUSCLEMOTION); format: cell-based, human; details: for activity at 0.1 µM / activity at 0.3 µM / activity at 1 µM / activity at 3 µM / activity at 0.03 µM: Homo sapiens, Cardiomyocyte, 0.5 h, 30 min, delta over DMSO 0.1%
Outline: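 Monolayers on fibronectin or Matrix Plus coating, tested on days 5–6 in serum-free medium. Four concentrations, one per well, n = 8, with vehicle control.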

[4] = FM monolayer, read-out: Trise (%DD)
[5] = MM monolayer, read-out: APD30 (%DD)
[6] = MM monolayer, read-out: APD90 (%DD)
[7] = MM monolayer, read-out: CL (%DD)
[8] = MM monolayer, read-out: Trise (%DD)
[9] = read-out: APD30 (%DD), FM monolayer
[10] = read-out: APD90 (%DD), FM monolayer
[11] = read-out: CL (%DD), FM monolayer
[12] = FM monolayer, read-out: CtAmp (%DD)
[13] = FM monolayer, read-out: CtD50 (%DD)
[14] = MM monolayer, read-out: CtAmp (%DD)
[15] = MM monolayer, read-out: CtD50 (%DD)
[16] = FM monolayer, read-out: APD30 (%DD)
[17] = FM monolayer, read-out: APD90 (%DD)
[18] = FM monolayer, read-out: CL (%DD)

C[C@H]1O[C@@H](O[C@H]2[C@@H](O)C[C@H](O[C@H]3[C@@H](O)C[C@H](O[C@H]4CC[C@@]5(C)[C@H](CC[C@@H]6[C@@H]5C[C@@H](O)[C@]5(C)[C@@H](C7=CC(=O)OC7)CC[C@]65O)C4)O[C@@H]3C)O[C@@H]2C)C[C@H](O)[C@@H]1O [Digoxin]
Free Cmax [1]: 2 nM
activity at 0.1 µM [2, 4]: 100 ± 21.3%
activity at 0.1 µM [2, 5]: 91 ± 1.2%
activity at 0.1 µM [2, 6]: 101 ± 1.3%
activity at 0.1 µM [2, 7]: 102 ± 0.4%
activity at 0.1 µM [2, 8]: 127 ± 10.8%
activity at 0.3 µM [2, 5]: 68 ± 2.5%
activity at 0.3 µM [2, 6]: 89 ± 1%
activity at 0.3 µM [2, 7]: 100 ± 0.8%
activity at 0.3 µM [2, 8]: 161 ± 38.2%
activity at 0.1 µM [2, 9]: 84 ± 1.8%
activity at 0.3 µM [2, 9]: 65 ± 2.8%
activity at 0.1 µM [2, 10]: 95 ± 0.6%
activity at 0.3 µM [2, 10]: 88 ± 2.1%
activity at 0.1 µM [2, 11]: 98 ± 0.7%
activity at 0.3 µM [2, 11]: 98 ± 0.9%
activity at 0.3 µM ([2]; read-out: Trise (%DD), FM monolayer): 74 ± 9.2%
effect on APD (in words) ([2]; both groups): decreased
electrical activity of the monolayers at higher concentrations ([2]; higher concentrations, FM and MM): electrical quiescence
activity at 0.1 µM [3, 12]: 88 ± 6.1%
activity at 0.1 µM [3, 13]: 90 ± 1.3%
activity at 0.3 µM [3, 12]: 18 ± 11.1%
activity at 0.3 µM [3, 13]: 51 ± 15.9%
activity at 0.1 µM [3, 14]: 127 ± 26.2%
activity at 0.1 µM [3, 15]: 97 ± 2%
activity at 0.3 µM [3, 14]: 12 ± 3.3%
activity at 0.3 µM [3, 15]: 43 ± 1.8%
activity at 1 µM [3, 14]: 13 ± 5.3%
activity at 1 µM [3, 15]: 40 ± 3.6%
activity at 3 µM [3, 14]: 7 ± 1.9%
activity at 3 µM [3, 15]: 43 ± 3.4%
increasing the amplitude of contraction (positive inotropy) ([3]; both experimental groups): ineffective

C[N+](C)(C)CCOC(N)=O [Carbachol]
activity at 0.03 µM [2, 16]: 97 ± 2.3%
activity at 0.03 µM [2, 17]: 99 ± 1.4%
activity at 0.03 µM [2, 18]: 99 ± 2.6%
activity at 0.03 µM [2, 4]: 104 ± 11.8%
activity at 0.1 µM [2, 16]: 104 ± 2.6%
activity at 0.1 µM [2, 17]: 100 ± 1.2%
activity at 0.1 µM [2, 18]: 105 ± 0.6%
activity at 0.1 µM [2, 4]: 125 ± 18.5%
activity at 0.3 µM [2, 16]: 102 ± 2.9%
activity at 0.3 µM [2, 17]: 103 ± 1%
activity at 0.3 µM [2, 18]: 109 ± 1%
activity at 0.3 µM [2, 4]: 118 ± 17.5%
activity at 1 µM [2, 16]: 103 ± 1.6%
activity at 1 µM [2, 17]: 110 ± 1.1%
activity at 1 µM [2, 18]: 114 ± 0.5%
activity at 1 µM [2, 4]: 95 ± 17.7%
activity at 0.03 µM [2, 5]: 105 ± 2.2%
activity at 0.03 µM [2, 6]: 103 ± 1.8%
activity at 0.03 µM [2, 7]: 106 ± 0.3%
activity at 0.03 µM [2, 8]: 186 ± 29%
activity at 0.1 µM [2, 5]: 106 ± 2.4%
activity at 0.1 µM [2, 6]: 107 ± 1.1%
activity at 0.1 µM [2, 7]: 115 ± 0.6%
activity at 0.1 µM [2, 8]: 144 ± 20.7%
activity at 0.3 µM [2, 5]: 111 ± 1.9%
activity at 0.3 µM [2, 6]: 111 ± 1.1%
activity at 0.3 µM [2, 7]: 122 ± 0.9%
activity at 0.3 µM [2, 8]: 143 ± 22.1%
activity at 1 µM [2, 5]: 120 ± 2.3%
activity at 1 µM [2, 6]: 118 ± 1%
activity at 1 µM [2, 7]: 131 ± 0.7%
activity at 1 µM [2, 8]: 143 ± 17.8%
effect on cycle length (in words) ([2]; both FM and MM monolayers, concentration not given): concentration-dependent increase
activity at 0.03 µM [3, 12]: 94 ± 15.9%
activity at 0.03 µM [3, 13]: 104 ± 2.1%
activity at 0.1 µM [3, 12]: 85 ± 10.4%
activity at 0.1 µM [3, 13]: 103 ± 2%
activity at 0.3 µM [3, 12]: 102 ± 21.3%
activity at 0.3 µM [3, 13]: 108 ± 2.1%
activity at 1 µM [3, 12]: 109 ± 13.8%
activity at 1 µM [3, 13]: 107 ± 3.7%
activity at 0.03 µM [3, 14]: 86 ± 6.4%
activity at 0.03 µM [3, 15]: 98 ± 1.5%
activity at 0.1 µM [3, 14]: 135 ± 12.9%
activity at 0.1 µM [3, 15]: 102 ± 1.8%
activity at 0.3 µM [3, 14]: 118 ± 12.9%
activity at 0.3 µM [3, 15]: 111 ± 2.1%
activity at 1 µM [3, 14]: 114 ± 18.4%
activity at 1 µM [3, 15]: 118 ± 1.5%
